Measured values reported in patent US20260262643A1, “HERBICIDAL BENZOXAZINES” (FMC CORPORATION, priority 2022, published 2026).

What was measured:
[1] = test system: ryegrass, Italian; assay: Test C preemergence; assay type: in vivo, Lolium multiflorum; details: preemergence, 0 to 100 scale (0 no effect, 100 complete control)
Method in brief: (§1)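 Visual injury score, 0–100 (100 = complete control), taken 10 days after treatment relative to untreated controls. Pre: directed spray onto soil over sown seeds. Post: foliar spray at one- to two-leaf stage, 2–10 cm. Solvent/surfactant formulation; loam–sand soil; greenhouse.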

[2] = test system: ducksalad; assay: Test D flooded paddy test; assay type: in vivo, Heteranthera limosa; details: 250 g ai/ha, applied to paddy water, visual rating after 13 to 14 days, scale 0 to 100 (0 no effect, 100 complete control)
Method in brief: (§2)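 Plants at the 2-leaf stage were grown in pots flooded to 3 cm, and compound was applied directly into the paddy water, with depth kept throughout. After 13–14 days in a greenhouse, injury was rated visually against untreated controls on a 0–100 scale (100 = complete control); a dash means not tested.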

[3] = test system: corn; assay: Test C preemergence; assay type: in vivo, Zea mays; details: preemergence, 0 to 100 scale (0 no effect, 100 complete control)
Method in brief: as §1

[4] = test system: ragweed; assay: Test C preemergence; assay type: in vivo, Ambrosia artemisiifolia; details: preemergence, 0 to 100 scale (0 no effect, 100 complete control)
Method in brief: as §1

[5] = test system: green foxtail; assay: Test C preemergence; assay type: in vivo, Setaria viridis; details: preemergence, 0 to 100 scale (0 no effect, 100 complete control)
Method in brief: as §1

[6] = test system: ragweed; assay: Test C postemergence; assay type: in vivo, Ambrosia artemisiifolia; details: 10 days, 0 to 100 scale (0 no effect, 100 complete control)
Method in brief: as §1

[7] = test system: green foxtail; assay: Test C postemergence; assay type: in vivo, Setaria viridis; details: 10 days, 0 to 100 scale (0 no effect, 100 complete control)
Method in brief: as §1

[8] = test system: wheat; assay: Test C postemergence; assay type: in vivo, Triticum aestivum; details: 10 days, 0 to 100 scale (0 no effect, 100 complete control)
Method in brief: as §1

[9] = test system: horseweed; assay: Test C postemergence; assay type: in vivo, Erigeron canadensis; details: 10 days, 0 to 100 scale (0 no effect, 100 complete control)
Method in brief: as §1

[10] = test system: kochia; assay: Test C postemergence; assay type: in vivo, Bassia scoparia; details: 10 days, 0 to 100 scale (0 no effect, 100 complete control)
Method in brief: as §1

[11] = test system: blackgrass; assay: Test C preemergence; assay type: in vivo, Alopecurus myosuroides; details: preemergence, 0 to 100 scale (0 no effect, 100 complete control)
Method in brief: as §1

[12] = test system: oat, wild; assay: Test C postemergence; assay type: in vivo, Avena fatua; details: 10 days, 0 to 100 scale (0 no effect, 100 complete control)
Method in brief: as §1

[13] = test system: rice; assay: Test D flooded paddy test; assay type: in vivo, Oryza sativa; details: 250 g ai/ha, applied to paddy water, visual rating after 13 to 14 days, scale 0 to 100 (0 no effect, 100 complete control)
Method in brief: as §2

[14] = test system: corn; assay: Test C postemergence; assay type: in vivo, Zea mays; details: 10 days, 0 to 100 scale (0 no effect, 100 complete control)
Method in brief: as §1

[15] = test system: soybean; assay: Test C preemergence; assay type: in vivo, Glycine max; details: preemergence, 0 to 100 scale (0 no effect, 100 complete control)
Method in brief: as §1

[16] = test system: wheat; assay: Test C preemergence; assay type: in vivo, Triticum aestivum; details: preemergence, 0 to 100 scale (0 no effect, 100 complete control)
Method in brief: as §1

[17] = test system: sedge, umbrella; assay: Test D flooded paddy test; assay type: in vivo, Cyperus difformis; details: 250 g ai/ha, applied to paddy water, visual rating after 13 to 14 days, scale 0 to 100 (0 no effect, 100 complete control)
Method in brief: as §2

[18] = test system: barnyardgrass; assay: Test C postemergence; assay type: in vivo, Echinochloa crusgalli; details: 10 days, 0 to 100 scale (0 no effect, 100 complete control)
Method in brief: as §1

[19] = test system: pigweed, palmer; assay: Test C preemergence; assay type: in vivo, Amaranthus palmeri; details: preemergence, 0 to 100 scale (0 no effect, 100 complete control)
Method in brief: as §1

[20] = test system: galium; assay: Test C postemergence; assay type: in vivo, Galium aparine; details: 10 days, 0 to 100 scale (0 no effect, 100 complete control)
Method in brief: as §1

[21] = test system: kochia; assay: Test C preemergence; assay type: in vivo, Bassia scoparia; details: preemergence, 0 to 100 scale (0 no effect, 100 complete control)
Method in brief: as §1

[22] = test system: barnyardgrass; assay: Test C preemergence; assay type: in vivo, Echinochloa crusgalli; details: preemergence, 0 to 100 scale (0 no effect, 100 complete control)
Method in brief: as §1

[23] = test system: oat, wild; assay: Test C preemergence; assay type: in vivo, Avena fatua; details: preemergence, 0 to 100 scale (0 no effect, 100 complete control)
Method in brief: as §1

[24] = test system: pigweed, palmer; assay: Test C postemergence; assay type: in vivo, Amaranthus palmeri; details: 10 days, 0 to 100 scale (0 no effect, 100 complete control)
Method in brief: as §1

[25] = test system: soybean; assay: Test C postemergence; assay type: in vivo, Glycine max; details: 10 days, 0 to 100 scale (0 no effect, 100 complete control)
Method in brief: as §1

[26] = test system: barnyardgrass; assay: Test D flooded paddy test; assay type: in vivo, Echinochloa crus-galli; details: 250 g ai/ha, applied to paddy water, visual rating after 13 to 14 days, scale 0 to 100 (0 no effect, 100 complete control)
Method in brief: as §2

[27] = test system: blackgrass; assay: Test C postemergence; assay type: in vivo, Alopecurus myosuroides; details: 10 days, 0 to 100 scale (0 no effect, 100 complete control)
Method in brief: as §1

[28] = test system: ryegrass, Italian; assay: Test C postemergence; assay type: in vivo, Lolium multiflorum; details: 10 days, 0 to 100 scale (0 no effect, 100 complete control)
Method in brief: as §1

Cc1cccc2c1OC(C(F)(F)F)CN2C(=O)c1cccc(-n2cnc(C(C)C)n2)c1 (racemic) [Compound 301]
20: Plant response rating, Wheat ([8]; Postemergence, 125 g ai/ha) | Plant response rating, Horseweed ([9]; Postemergence, 125 g ai/ha) | Plant response rating, Oat, Wild ([12]; Postemergence, 125 g ai/ha) | Plant response rating, Barnyardgrass (Flood) [26]
15: Plant response rating, Rice (Flood) [13]
30: Plant response rating, Ragweed ([6]; Postemergence, 125 g ai/ha)
0: Corn plant response rating ([3]; 500 g ai/ha) | Corn plant response rating ([3]; Test C, 125 g ai/ha) | Ragweed plant response rating ([4]; Test C, 125 g ai/ha) | Plant response rating, Horseweed ([9]; 500 g ai/ha, postemergence)
85: Plant response rating, Sedge, Umbrella (Flood) [17]
70: Plant response rating, Foxtail, Green ([7]; 500 g ai/ha, postemergence) | Oat, Wild plant response rating ([23]; Test C, 125 g ai/ha) | Plant response rating, Ryegrass, Italian ([28]; Postemergence, 125 g ai/ha)
100: Ryegrass, Italian plant response rating ([1]; 500 g ai/ha) | Ryegrass, Italian plant response rating ([1]; Test C, 125 g ai/ha) | Foxtail, Green plant response rating ([5]; 500 g ai/ha) | Foxtail, Green plant response rating ([5]; Test C, 125 g ai/ha) | Blackgrass plant response rating ([11]; 500 g ai/ha) | Soybean plant response rating ([15]; 500 g ai/ha) | Pigweed, Palmer plant response rating ([19]; 500 g ai/ha) | Plant response rating, Galium ([20]; 500 g ai/ha, postemergence) | Plant response rating, Galium ([20]; Postemergence, 125 g ai/ha) | Plant response rating, Soybean ([25]; 500 g ai/ha, postemergence) | Plant response rating, Soybean ([25]; Postemergence, 125 g ai/ha) | Plant response rating, Blackgrass ([27]; 500 g ai/ha, postemergence)
10: Plant response rating, Foxtail, Green ([7]; Postemergence, 125 g ai/ha) | Plant response rating, Corn ([14]; Postemergence, 125 g ai/ha) | Soybean plant response rating ([15]; Test C, 125 g ai/ha) | Plant response rating, Barnyardgrass ([18]; Postemergence, 125 g ai/ha) | Plant response rating, Pigweed, Palmer ([24]; Postemergence, 125 g ai/ha)
80: Plant response rating, Kochia ([10]; 500 g ai/ha, postemergence) | Plant response rating, Corn ([14]; 500 g ai/ha, postemergence) | Kochia plant response rating ([21]; Test C, 125 g ai/ha) | Plant response rating, Ryegrass, Italian ([28]; 500 g ai/ha, postemergence)
55: Plant response rating, Ducksalad (Flood) [2]
60: Plant response rating, Ragweed ([6]; 500 g ai/ha, postemergence) | Plant response rating, Pigweed, Palmer ([24]; 500 g ai/ha, postemergence)
40: Wheat plant response rating ([16]; Test C, 125 g ai/ha) | Plant response rating, Barnyardgrass ([18]; 500 g ai/ha, postemergence)
50: Ragweed plant response rating ([4]; 500 g ai/ha) | Plant response rating, Wheat ([8]; 500 g ai/ha, postemergence) | Plant response rating, Kochia ([10]; Postemergence, 125 g ai/ha) | Plant response rating, Oat, Wild ([12]; 500 g ai/ha, postemergence) | Barnyardgrass plant response rating ([22]; Test C, 125 g ai/ha)
90: Blackgrass plant response rating ([11]; Test C, 125 g ai/ha) | Wheat plant response rating ([16]; 500 g ai/ha) | Pigweed, Palmer plant response rating ([19]; Test C, 125 g ai/ha) | Kochia plant response rating ([21]; 500 g ai/ha) | Barnyardgrass plant response rating ([22]; 500 g ai/ha) | Oat, Wild plant response rating ([23]; 500 g ai/ha) | Plant response rating, Blackgrass ([27]; Postemergence, 125 g ai/ha)
